Columns and labels:
Assay type in all cases: cell-based
Details in all cases: inoculum about 10^4 CFU/ml, 18-24 h at 37° C.
Staph. aureus Tour L 165 = experiment: MIC, standard dilution test, Staph. aureus Tour L 165
Experimental: (§1) ISOSENSITEST broth (Oxoid) and TOLLD-HEWITT broth (Difco) are used for growing staphylococci and streptococci, respectively. Broth cultures are diluted so that the final inoculum is about 10^4 colony forming units/ml (CFU/ml).

[1] = test system: Staph. haemolyticus L 602; experiment: MIC, standard dilution test, Staph. haemolyticus L 602
Experimental: as §1

[2] = test system: Staph. epidermidis ATCC 12228; experiment: MIC, standard dilution test, Staph. epidermidis ATCC 12228
Experimental: as §1

Strep. pyogenes C 203 = experiment: MIC, standard dilution test, Strep. pyogenes C 203
Experimental: as §1

Strep. pneumoniae UC41 = experiment: MIC, standard dilution test, Strep. pneumoniae UC41
Experimental: as §1

[3] = test system: Strep. faecalis ATCC 7080; experiment: MIC, standard dilution test, Strep. faecalis ATCC 7080
Experimental: as §1

Strep. mitis L 796 = experiment: MIC, standard dilution test, Strep. mitis L 796
Experimental: as §1

[4] = test system: Neisseria gonorrhoeae ISM68/126; experiment: MIC, standard dilution test, Neisseria gonorrhoeae ISM68/126
Experimental: as §1

[5] = test system: Haemophilus influenzae ATCC 19418; experiment: MIC, standard dilution test, Haemophilus influenzae ATCC 19418
Experimental: as §1

[6] = test system: Escherichia coli SKF 12140; experiment: MIC, standard dilution test, Escherichia coli SKF 12140
Experimental: as §1

[7] = test system: Proteus vulgaris ATCC 881; experiment: MIC, standard dilution test, Proteus vulgaris ATCC 881
Experimental: as §1

[8] = test system: Pseudomonas aeruginosa ATCC 10145; experiment: MIC, standard dilution test, Pseudomonas aeruginosa ATCC 10145
Experimental: as §1

Minimal inhibitory concentration (MIC) (Staph. aureus Tour L 165) | Minimal inhibitory concentration (MIC) [2] | Minimal inhibitory concentration (MIC) (Strep. pyogenes C 203) | Minimal inhibitory concentration (MIC) (Strep. pneumoniae UC41) | Minimal inhibitory concentration (MIC) [3] | Minimal inhibitory concentration (MIC) (Strep. mitis L 796) | Minimal inhibitory concentration (MIC) [4] | Minimal inhibitory concentration (MIC) [5] | Minimal inhibitory concentration (MIC) [6] | Minimal inhibitory concentration (MIC) [7] | Minimal inhibitory concentration (MIC) [8] | Structure (SMILES) | Minimal inhibitory concentration (MIC) [1]
0.125 | 0.25 | 0.125 | 0.25 | 0.125 | 0.125 | 32 | 64 | 8 | 128 | 64 | COC(=O)C1NC(=O)C2NC(=O)C(NC(=O)C3NC(=O)C4NC(=O)C(Cc5ccc(c(Cl)c5)Oc5cc3cc(c5OCCN3CCCC3)Oc3ccc(cc3Cl)C2O)NC(=O)C(N)c2ccc(O)c(c2)Oc2cc(O)cc4c2)c2ccc(O)c(c2)-c2c(O)cc(O)cc21.Cl.Cl (stereo not drawn) [Compound 13, O^56-[2-(1-pyrrolidinyl)ethyl]deglucoteicoplanin methyl ester dihydrochloride] | 0.5
0.5 | 0.25 | 2 | 0.5 | 1 | 2 | > 128 | > 128 | > 128 | > 128 | > 128 | NC1C(=O)NC2Cc3ccc(c(Cl)c3)Oc3cc4cc(c3OC3CCOC3=O)Oc3ccc(cc3Cl)C(O)C3NC(=O)C(NC(=O)C4NC(=O)C(NC2=O)c2cc(O)cc(c2)Oc2cc1ccc2O)c1ccc(O)c(c1)-c1c(O)cc(O)cc1C(C(=O)OC1CCOC1=O)NC3=O (stereo not drawn) [Compound 23, O^56-(tetrahydro-2-oxo-3-furanyl)deglucoteicoplanin (tetrahydro-2-oxo-3-furanyl) ester] | 8
0.125 | 0.25 | 0.5 | 0.25 | 0.5 | 0.5 | 64 | > 128 | > 128 | > 128 | > 128 | NC1C(=O)NC2Cc3ccc(c(Cl)c3)Oc3cc4cc(c3OC3CCOC3=O)Oc3ccc(cc3Cl)C(O)C3NC(=O)C(NC(=O)C4NC(=O)C(NC2=O)c2cc(O)cc(c2)Oc2cc1ccc2O)c1ccc(O)c(c1)-c1c(O)cc(O)cc1C(C(=O)O)NC3=O (stereo not drawn) [Compound 16, O^56-(tetrahydro-2-oxo-3-furanyl)deglucoteicoplanin] | 4

More lines, now with the values behind:

Structure (SMILES) | Minimal inhibitory concentration (MIC) (Staph. aureus Tour L 165) | Minimal inhibitory concentration (MIC) [2] | Minimal inhibitory concentration (MIC) (Strep. pyogenes C 203) | Minimal inhibitory concentration (MIC) (Strep. pneumoniae UC41) | Minimal inhibitory concentration (MIC) [3] | Minimal inhibitory concentration (MIC) (Strep. mitis L 796) | Minimal inhibitory concentration (MIC) [4] | Minimal inhibitory concentration (MIC) [5] | Minimal inhibitory concentration (MIC) [6] | Minimal inhibitory concentration (MIC) [7] | Minimal inhibitory concentration (MIC) [8] | Minimal inhibitory concentration (MIC) [1]
CNC(=O)C1NC(=O)C2NC(=O)C(NC(=O)C3NC(=O)C4NC(=O)C(Cc5ccc(c(Cl)c5)Oc5cc3cc(c5OCCCCN)Oc3ccc(cc3Cl)C2O)NC(=O)C(N)c2ccc(O)c(c2)Oc2cc(O)cc4c2)c2ccc(O)c(c2)-c2c(O)cc(O)cc21 (stereo not drawn) [Compound 9, O^56-(4-aminobutyl)-deglucoteicoplanin methylamide] | 0.25 | 0.125 | 0.063 | 0.125 | 0.125 | 0.125 | 64 | 64 | 8 | 32 | 64 | 0.25
COC(=O)C1NC(=O)C2NC(=O)C(NC(=O)C3NC(=O)C4NC(=O)C(Cc5ccc(c(Cl)c5)Oc5cc3cc(c5OCCCCN)Oc3ccc(cc3Cl)C2O[C@@H]2O[C@H](CO)[C@@H](O)[C@H](O)[C@H]2NC(C)=O)NC(=O)C(N)c2ccc(O)c(c2)Oc2cc(O)cc4c2)c2ccc(O)c(c2)-c2c(O[C@H]3O[C@H](CO)[C@@H](O)[C@H](O)[C@@H]3O)cc(O)cc21 (stereo partly drawn) [Compound 10, O^56-(4-aminobutyl)teicoplanin pseudoaglycone methyl ester] | 2 | 4 | 0.125 | 1 | 4 | 1 | > 128 | > 128 | > 128 | > 128 | > 128 | 16
COC(=O)C1NC(=O)C2NC(=O)C(NC(=O)C3NC(=O)C4NC(=O)C(Cc5ccc(c(Cl)c5)Oc5cc3cc(c5OCCBr)Oc3ccc(cc3Cl)C2O)NC(=O)C(N)c2ccc(O)c(c2)Oc2cc(O)cc4c2)c2ccc(O)c(c2)-c2c(O)cc(O)cc21 (stereo not drawn) [Compound 11, O^56-(2-bromoethyl)deglucoteicoplanin methyl ester] | 0.5 | 0.125 | 0.125 | 0.25 | 1 | 0.25 | > 128 | 64 | 64 | > 128 | > 128 | 2
COC(=O)C1NC(=O)C2NC(=O)C(NC(=O)C3NC(=O)C4NC(=O)C(Cc5ccc(c(Cl)c5)Oc5cc3cc(c5OC(CCO)C(=O)NCCN)Oc3ccc(cc3Cl)C2O)NC(=O)C(N)c2ccc(O)c(c2)Oc2cc(O)cc4c2)c2ccc(O)c(c2)-c2c(O)cc(O)cc21.Cl (stereo not drawn) [Compound 4, O^56-[1-[[2-aminoethylamino]carbonyl]3-hydroxypropyl]deglucoteicoplanin methyl ester hydrochloride] | 0.125 | 0.125 | 0.063 | 0.25 | 0.25 | 0.125 | 64 | 128 | 16 | 128 | 64 | 0.5
COC(=O)C1NC(=O)C2NC(=O)C(NC(=O)C3NC(=O)C4NC(=O)C(Cc5ccc(c(Cl)c5)Oc5cc3cc(c5OCCCl)Oc3ccc(cc3Cl)C2O)NC(=O)C(N)c2ccc(O)c(c2)Oc2cc(O)cc4c2)c2ccc(O)c(c2)-c2c(O)cc(O)cc21 (stereo not drawn) [Compound 7, O^56-(2-chloroethyl) deglucoteicoplanin methyl ester] | 0.125 | 0.5 | 0.125 | 0.125 | 2 | 0.25 | > 128 | 64 | > 128 | > 128 | > 128 | 1
